Assay results reported in patent US20120165384A1, “INHIBITION OF HISTONE ACETYLTRANSFERASES BY CTK7A AND METHODS THEREOF” (JAWAHARLAL NEHRU CENTRE FOR ADVANCED SCIENTIFIC RESEARCH, priority 2009, published 2012).

What was measured:
KB cells [1] = test: FACS cell cycle analysis; type: cell-based; settings: 24 h, concentration dependent
Method: KB cells were grown in the presence or absence of CTK7A for 24 h with the indicated concentration. Cells were grown in presence of CTK7A for 2 h in absence of serum followed by addition of 10% Serum. Briefly cells were harvested by mild trypsinization (0.25%) followed by centrifugation at 2000 rpm for 10 minutes at 4° C. Cells were washed with cold PBS by centrifugation at 2000 rpm for 10 minutes at 4° C. Cells were fixed in cold 70% Ethanol which was added drop wise along with mild vortexing.
Samples were left for 12 hrs, after which Ethanol was removed followed by two washes in cold PBS. RNase (100 μg/ml) treatment was subsequently given at 37° C./30 minutes to ensure only DNA staining. 50 μg/ml Propidium Iodide was added for staining. Cells were sorted and analyzed by flow cytometry for the cell cycle distribution using inbuilt software of BD FACScalibur instrument. Analysis was done in FL2 channel.

SIRT2 = target: T1, SIRT2 (Homo sapiens, UniProt Q8IXJ6); test: SirT2 deacetylase assay; type: biochemical; settings: even at 100 μM
T1 construct: made in house
T1 sequence (Q8IXJ6 1-389): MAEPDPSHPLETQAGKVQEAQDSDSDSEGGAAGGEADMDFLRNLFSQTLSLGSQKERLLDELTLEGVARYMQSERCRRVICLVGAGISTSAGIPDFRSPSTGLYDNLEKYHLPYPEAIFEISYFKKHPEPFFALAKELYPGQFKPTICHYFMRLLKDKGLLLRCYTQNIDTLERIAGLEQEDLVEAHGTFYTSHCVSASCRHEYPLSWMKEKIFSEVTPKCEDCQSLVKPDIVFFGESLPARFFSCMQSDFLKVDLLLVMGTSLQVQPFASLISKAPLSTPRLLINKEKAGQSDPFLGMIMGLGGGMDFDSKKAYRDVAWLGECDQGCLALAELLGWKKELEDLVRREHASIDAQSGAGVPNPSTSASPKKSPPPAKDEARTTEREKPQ
Method: The deacetylation assay was performed as per standard protocol^31. For SirT2 deacetylase assay, 50 ng of bacterially expressed, recombinant enzyme was added in the presence or absence of cofactor NAD^+. HMTase was performed as reported earlier^31.

p300 [2] = target: T2, p300 (Homo sapiens, UniProt Q09472); test: p300 autoacetylation enhanced by cocktail of HDAC inhibitors (immunoprecipitation); type: cell-based
Method: Whole cell extract were prepared using RIPA buffer as mentioned above. The pre-blocked protein-G sepharose-bound antibody (4 μg) was incubated with 500 μg whole cell lysate overnight at 4° C. After extensive washes, bead-bound protein were analysed by western blotting with indicated antibodies. For HDAC inhibitors treatment, 5 mM sodium butyrate, 5 mM nicotiamide and 100 ng ml^−1 TSA were added 10 h before cells were harvest^36.

p300 [3] = target: T2, p300; test: HAT assay with recombinant p300; type: biochemical; parameters: hexahistidine; made in house; host or cells: baculovirus-infected Sf21 cells
Method: Recombinant baculovirus expressing full-length FLAG-tagged CARM1,CBP and PCAF were purified by immunoaffinity chromatography using M2-agarose beads followed by elution with FLAG peptide. Baculovirus-expressed full-length hexahistidine-tagged p300, and G9a were purified using Ni-NTA affinity chromatography as described previously^30.
HAT gel fluorography/autoradiography assays were performed as previously reported^30. Kinetic analysis of p300 HAT inhibition was performed as reported earlier^31 in the presence of (0, 30 and 50 μM) CTK7A. The obtained values were plotted as a lineweaver burk plot using Graphpad Prism software. For p300 Autoacetylation assay, reactions of p300 full length (80 ng) were carried out in HAT assay buffer at 30° C. for 10 minutes with or without the protein (NPM1) followed by addition of 1 μl of 4.7 Ci/mmol [^3H] acetyl CoA (NEN-PerkinElmer) and were further incubated for another 10 min in a 30 μl reaction. GAPDH was used as positive control. The radio-labeled acetylated p300 were processed by fluorography followed by autoradiography.

Solubility test in water = type: physicochemical
Method: To a solution of curcumin in methanol (10 mg, 0.027 Mmol) […]. After incubation for 24 h, the solvent was evaporated in vacuum. The residue […] was purified with repeated recrystallization and filtration method using TLC (CHCl3/MeOH=4:1; Rf=0.5). This gave CTK7 as a dark orange powder (7.18 mg, 55%) which was analyzed by H^1 NMR, Melting point test, Solubility test and ESI-MS.
To a solution of CTK7 in methanol (50 mg, 0.1031 mmol), (10 ml) of Sodium ethoxide was added ([…], 0.1175 mmol) and the reaction mixture was stirred at room temperature for 90 minutes. The solvent was evaporated in vacuum and the residue was washed with hexane, diethyl ether and ethyl acetate. Product was confirmed through H^1 NMR, Solubility test, melting point.

KB cells [4] = test: In vitro wound-healing assay; type: cell-based; settings: 24 h, in the presence of serum
Method: Cells in medium containing 10% FBS were seeded in 30 mm dishes. After the cells grew to confluence, wounds of constant diameter were made by sterile plastic pipette tip (200-μl) by scratching the monolayers. Cells were washed with the serum free medium twice and refreshed with medium with or without 10% FBS. Cells were treated with or without the HAT inhibitor for 24 h along with 10% serum. The wound photographs were taken under phase-contrast microscope. Serum positive and negative cells act as positive and negative control for the experiments respectively.

T2 sequence (Q09472 whole entry, species assumed): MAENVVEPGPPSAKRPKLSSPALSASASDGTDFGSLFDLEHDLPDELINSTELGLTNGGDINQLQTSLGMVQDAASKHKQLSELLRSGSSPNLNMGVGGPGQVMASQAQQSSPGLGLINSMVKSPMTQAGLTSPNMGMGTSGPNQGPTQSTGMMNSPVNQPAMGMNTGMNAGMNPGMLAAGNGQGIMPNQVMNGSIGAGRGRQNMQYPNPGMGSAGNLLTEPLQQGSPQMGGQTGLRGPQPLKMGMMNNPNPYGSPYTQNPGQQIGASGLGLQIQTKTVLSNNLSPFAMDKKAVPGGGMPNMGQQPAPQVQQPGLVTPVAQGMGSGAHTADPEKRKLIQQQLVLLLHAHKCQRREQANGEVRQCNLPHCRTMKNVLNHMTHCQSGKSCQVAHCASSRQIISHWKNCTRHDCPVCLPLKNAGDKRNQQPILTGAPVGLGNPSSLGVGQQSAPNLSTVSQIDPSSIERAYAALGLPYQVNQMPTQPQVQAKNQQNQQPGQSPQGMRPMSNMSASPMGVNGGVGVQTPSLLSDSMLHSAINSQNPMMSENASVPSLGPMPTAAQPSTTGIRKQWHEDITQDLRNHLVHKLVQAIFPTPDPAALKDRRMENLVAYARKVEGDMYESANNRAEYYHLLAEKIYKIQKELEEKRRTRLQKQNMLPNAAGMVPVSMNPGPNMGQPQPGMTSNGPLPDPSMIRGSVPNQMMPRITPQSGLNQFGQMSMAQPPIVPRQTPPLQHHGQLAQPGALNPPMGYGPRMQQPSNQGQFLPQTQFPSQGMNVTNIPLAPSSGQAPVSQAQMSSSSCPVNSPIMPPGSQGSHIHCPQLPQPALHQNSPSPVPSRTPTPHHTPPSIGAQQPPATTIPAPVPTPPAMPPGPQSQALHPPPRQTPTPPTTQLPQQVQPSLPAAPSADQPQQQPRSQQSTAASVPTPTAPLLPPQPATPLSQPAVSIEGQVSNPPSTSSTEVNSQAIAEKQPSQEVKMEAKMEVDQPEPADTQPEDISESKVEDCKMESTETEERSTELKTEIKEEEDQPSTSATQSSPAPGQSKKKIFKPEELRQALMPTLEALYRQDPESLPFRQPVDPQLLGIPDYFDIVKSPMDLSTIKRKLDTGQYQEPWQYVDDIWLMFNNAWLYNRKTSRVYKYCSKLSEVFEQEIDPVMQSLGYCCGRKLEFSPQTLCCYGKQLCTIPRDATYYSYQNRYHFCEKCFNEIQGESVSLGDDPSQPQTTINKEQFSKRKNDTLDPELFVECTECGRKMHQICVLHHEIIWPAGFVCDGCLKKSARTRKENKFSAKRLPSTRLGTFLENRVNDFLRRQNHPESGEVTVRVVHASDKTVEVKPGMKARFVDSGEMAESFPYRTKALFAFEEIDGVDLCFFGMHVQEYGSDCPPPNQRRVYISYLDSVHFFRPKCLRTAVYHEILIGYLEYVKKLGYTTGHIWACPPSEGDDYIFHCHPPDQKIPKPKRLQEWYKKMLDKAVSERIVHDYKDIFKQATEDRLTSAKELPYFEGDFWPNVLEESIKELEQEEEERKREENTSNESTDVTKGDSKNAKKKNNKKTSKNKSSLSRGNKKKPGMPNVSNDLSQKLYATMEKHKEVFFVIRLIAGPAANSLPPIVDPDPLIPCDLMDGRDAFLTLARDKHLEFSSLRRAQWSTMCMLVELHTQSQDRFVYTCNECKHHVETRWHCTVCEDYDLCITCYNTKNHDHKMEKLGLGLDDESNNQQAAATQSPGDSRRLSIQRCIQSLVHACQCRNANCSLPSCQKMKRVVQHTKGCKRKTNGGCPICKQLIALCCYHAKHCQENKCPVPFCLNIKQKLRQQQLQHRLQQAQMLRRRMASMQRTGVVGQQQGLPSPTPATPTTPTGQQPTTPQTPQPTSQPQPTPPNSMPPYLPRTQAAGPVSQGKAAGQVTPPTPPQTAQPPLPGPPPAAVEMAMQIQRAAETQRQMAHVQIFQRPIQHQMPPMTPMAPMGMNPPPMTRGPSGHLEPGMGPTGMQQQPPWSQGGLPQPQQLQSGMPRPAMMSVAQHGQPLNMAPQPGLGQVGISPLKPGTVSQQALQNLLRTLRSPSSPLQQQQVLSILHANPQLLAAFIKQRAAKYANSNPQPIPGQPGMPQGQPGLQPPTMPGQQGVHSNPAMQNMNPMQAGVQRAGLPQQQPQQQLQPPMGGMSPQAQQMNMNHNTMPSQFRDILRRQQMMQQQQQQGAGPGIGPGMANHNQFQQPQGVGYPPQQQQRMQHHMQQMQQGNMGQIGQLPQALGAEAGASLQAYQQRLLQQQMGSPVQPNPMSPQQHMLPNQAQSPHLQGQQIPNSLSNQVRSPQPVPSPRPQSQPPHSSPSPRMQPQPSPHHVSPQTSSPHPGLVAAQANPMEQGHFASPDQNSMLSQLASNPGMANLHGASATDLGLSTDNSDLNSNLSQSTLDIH

COc1cc([O-])cc(C=CC2=NN(c3ccc(C(=O)[O-])cc3)C(C=Cc3cc([O-])cc(OC)c3)C2)c1.[Na+].[Na+].[Na+] (stereo not shown) [CTK7A, Sodium 4-(3,5-bis(3-methoxy-5-oxidostyryl)-4,5dihydro-1H-pyrazole-1-yl)benzoate]
percentage of polyploid cells (>4N) (KB cells [1]): dramatic increase
effect on SIRT2 activity (SIRT2): unaffected
inhibition of enhanced autoacetylation of p300 (p300 [2]): inhibit
inhibition of p300 HAT activity (p300 [3]): inhibit
type of inhibition pattern for p300 (p300 [3]; both substrates, acetyl-coA and core histone, 0, 30 and 50 μM): non-competitive
solubility in water (Solubility test in water): Soluble
wound healing activity (KB cells [4]): reduction
